Data reported in PubChem BioAssay (NCI).
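Where inhibition never reached the appropriate level, the endpoint shown equals the highest concentration tested. Otherwise, values were interpolated linearly from a five-concentration, 48-hour dose response in 96-well plates. The concentration for full growth arrest is given as TGI.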

Tests used:
Test in all cases: inhibition of tumour cell growth, NCI panel, 48 h
[1] = system: BT-549 breast
[2] = system: HCT-15 colon
[3] = system: A549 NSCLC
[4] = system: SNB-75 CNS
[5] = system: T-47D breast
[6] = system: NCI-H522 lung
[7] = system: MDA-MB-231 breast
[8] = system: SK-MEL-2 melanoma
[9] = system: HS 578T breast
[10] = system: CCRF-CEM leukemia
[11] = system: OVCAR-3 ovarian

SMILES	TGI [1]	TGI [2]	TGI [3]	TGI [4]	TGI [5]	TGI [6]	TGI [7]	TGI [8]	TGI [9]	TGI [10]	TGI [11]
COc1ccc2c(c1)CN1C(=N2)CSC1c1cccc(Br)c1 (stereo not drawn)	> 100 µM	> 100 µM	> 100 µM	64.5 µM	> 100 µM	> 100 µM	> 100 µM	> 100 µM	> 100 µM	–	–
O=[N+]([O-])c1ccc(CSc2nncc3[nH]cnc23)cc1	> 100 µM	> 100 µM	> 100 µM	> 100 µM	> 100 µM	> 100 µM	> 100 µM	> 100 µM	–	> 100 µM	> 100 µM
COc1c(=O)cc2cc[nH]c3cc[nH]c1c23	> 100 µM	> 100 µM	> 100 µM	–	–	12.1 µM	> 100 µM	> 100 µM	> 100 µM	> 100 µM	47.8 µM
CC(C)CCNC(=O)c1ccc(CNC(=O)/C=C/c2cccc(Oc3ccccc3)c2)cc1	> 100 µM	> 100 µM	> 100 µM	> 100 µM	> 100 µM	> 100 µM	77.5 µM	72.5 µM	> 100 µM	–	93 µM
O=C1/C(=C/C=C/c2ccccc2)CCC1CNc1ccccc1 (stereo not drawn)	> 69 µM	50.1 µM	> 100 µM	> 100 µM	> 68.4 µM	> 22.7 µM	51.7 µM	–	> 100 µM	27.5 µM	> 68.9 µM
CNC1(c2cc3ccccc3s2)CCCCC1	> 100 µM	> 100 µM	> 100 µM	99.3 µM	–	29.1 µM	71.8 µM	–	–	–	> 100 µM
O=C1/C(=C\c2ccc([N+](=O)[O-])cc2)N(S(=O)(=O)c2ccccc2)c2ncccc21	32.7 µM	32.3 µM	> 100 µM	43.1 µM	35 µM	54.4 µM	38.4 µM	–	81.3 µM	> 100 µM	31.3 µM
O=S(Cc1ccccc1)c1nc2ccccc2nc1-c1cccs1 (stereo not drawn)	–	25.5 µM	30.7 µM	36.1 µM	–	3.4 µM	–	24.2 µM	–	> 100 µM	24 µM
CN(/N=C/c1ccc(C(=O)O)cc1)C1=NCCCCN1	> 100 µM	> 100 µM	> 100 µM	> 100 µM	> 100 µM	> 100 µM	> 100 µM	–	–	> 100 µM	> 100 µM
Cc1ccc(-n2[nH]nc(C(N)=O)c2=O)cc1	> 100 µM	> 100 µM	> 100 µM	> 100 µM	> 100 µM	> 100 µM	> 100 µM	–	> 100 µM	> 100 µM	> 100 µM
Cc1ccc(C2(O)CSC(=NC34CC5CC(CC(C5)C3)C4)N2C(P(=O)(O)O)P(=O)(O)O)cc1 (stereo not drawn)	> 100 µM	> 100 µM	> 100 µM	> 100 µM	> 100 µM	–	> 100 µM	> 100 µM	> 100 µM	–	> 100 µM
Cc1c(-c2ccccc2)cc(O)c2nc3ccccc3n12	> 100 µM	> 100 µM	> 100 µM	> 100 µM	> 100 µM	> 100 µM	> 100 µM	–	> 100 µM	> 100 µM	> 100 µM
O=c1[nH]c2cc(C(F)(F)F)ccc2nc1C(F)(F)F	> 100 µM	> 100 µM	> 100 µM	93.6 µM	> 100 µM	99.1 µM	> 100 µM	79.3 µM	–	> 100 µM	58 µM
CC(C)(C)C1CCC(=O)/C(=C/CC2CC(=O)N(c3ccccc3)C(=O)C2)C1 (stereo not drawn)	44.5 µM	33.2 µM	–	53.3 µM	48.6 µM	39.2 µM	> 100 µM	42.9 µM	94.5 µM	–	47.7 µM
C[C@@H](C(=O)O)N1C(c2ccco2)=C(/C(C=O)=C\c2ccco2)C(=O)/C1=C\c1ccco1	> 100 µM	> 100 µM	> 100 µM	–	> 100 µM	> 100 µM	> 100 µM	> 100 µM	> 100 µM	> 100 µM	> 100 µM
COc1ccc2nc(N/N=C/c3sccc3C)cc(C)c2c1	32.2 µM	30.5 µM	56.9 µM	37.1 µM	> 100 µM	–	16.1 µM	63.1 µM	55.3 µM	67 µM	45.8 µM
CC1(C)OCN(c2ccc(N3CCOCC3)cc2)Cn2c1nc1ccccc12	–	> 100 µM	> 100 µM	> 100 µM	–	> 100 µM	–	> 100 µM	–	> 100 µM	> 100 µM
C=C1C(=O)OC2/C=C(\C(=O)O)CC/C=C(\C)CC(OC(=O)/C=C(\C)CC)C12 (stereo not drawn)	–	28.6 µM	31.6 µM	47.6 µM	–	32.8 µM	–	28.7 µM	–	> 100 µM	30.8 µM
N#Cc1c(-c2ccc(Cl)cc2)c2c(n(C3OC(CO)C(O)C(O)C3O)c1=S)CCCC2 (stereo not drawn)	> 100 µM	> 100 µM	> 100 µM	> 100 µM	–	> 100 µM	> 100 µM	> 100 µM	> 100 µM	> 100 µM	> 100 µM
N[C@@H]1CCN(c2c(F)cc3c(=O)c(C(=O)O)cn4c3c2Oc2c-4ccc3c2ccc2ccccc23)C1	> 100 µM	> 100 µM	> 100 µM	–	–	> 100 µM	–	> 100 µM	> 100 µM	–	> 100 µM
CC12C=CC(C)(C3C(=O)C4C(C(=O)C31)C1(C)C=CC4(C)S1=O)S2=O (stereo not drawn)	> 100 µM	> 100 µM	> 100 µM	> 100 µM	–	> 100 µM	> 100 µM	–	> 100 µM	–	> 100 µM
O=C(NC1=C(Cl)C(=O)c2ccccc2C1=O)c1ccccc1	44.4 µM	62.6 µM	> 100 µM	> 100 µM	47.4 µM	52.3 µM	> 100 µM	–	> 100 µM	> 100 µM	42.7 µM
N#C[S-].[La+3].c1cnc2c(c1)ccc1cccnc12.c1cnc2c(c1)ccc1cccnc12.c1cnc2c(c1)ccc1cccnc12	–	–	10.6 µM	29 µM	–	16 µM	–	–	–	2.58 µM	19.2 µM
